Results as given in article PMC5335257, “Promoting in vivo remyelination with small molecules: a neuroreparative pharmacological treatment for Multiple Sclerosis” (Scientific Reports, 2017).

How the values were obtained:
OPCs from P0 mice = assay: Proliferation assay (BrdU incorporation); assay type: cell-based, mouse; conditions: murine P0 OPCs, 1 μM, 72 h
Procedure: We isolated OPCs, as previously described. Briefly, a stock papain solution was prepared containing ([…]; Worthington Biochemical), L-cysteine (0.2 mg/ml; Sigma), and EDTA (0.2 mg/ml; Sigma) in Hank’s Balanced Salt Solution (HBSS; Invitrogen) without Ca^2+ and Mg[2]. Then, the cerebral cortices of P0 CD1 mice were dissected out and placed for 5 minutes at 37 °C in a medium containing the stock papain solution in HBSS with Ca^2+ and Mg^2+ (1:10; Invitrogen) in order to easily remove the meninges. […] The resulting enriched oligodendrocyte progenitor cell suspension was counted and seeded.
OPCs were placed on coverslips coated with poly-L-lysine (Sigma) and laminin (Sigma; 2 × 10^4 cells/well) and they were incubated with the inhibitors (VP3.15 or TDZD8; 1 μM) in the serum free medium described above. After 42 h in culture, BrdU (50 μM; Sigma) was added for 6 h and after a total of 72 h in culture, the cells were fixed and BrdU incorporation was detected by immunocytochemistry (1:20; G3G4, HybridomaBank) combined with the detection of the oligodendroglial marker Olig2 (1:250; Millipore; Cat#AB9610). […]

[1] = system: OPCs isolated from P0 mice; assay: Differentiation assay, murine OPCs; assay type: cell-based, mouse
Procedure: We isolated OPCs, as previously described. Briefly, a stock papain solution was prepared containing ([…]; Worthington Biochemical), L-cysteine (0.2 mg/ml; Sigma), and EDTA (0.2 mg/ml; Sigma) in Hank’s Balanced Salt Solution (HBSS; Invitrogen) without Ca^2+ and Mg[2]. Then, the cerebral cortices of P0 CD1 mice were dissected out and placed for 5 minutes at 37 °C in a medium containing the stock papain solution in HBSS with Ca^2+ and Mg^2+ (1:10; Invitrogen) in order to easily remove the meninges. Once meninges and choroid plexus were removed, the tissue was enzymatically dissociated for 5 minutes at 37 °C again by using the papain solution (1:10 in HBSS without Ca^2+ and Mg^2+) and the digested tissue was then filtered through a 100 μm nylon mesh strainer (BD Biosciences) and seeded on poly-L-ornithine-coated (Sigma) 75 cm^2 flasks in DMEM medium (Invitrogen) containing 10% foetal bovine serum (FBS; BioWhittaker) and 100 U/mL penicillin, 0.1 mg/mL streptomycin and 0.25 μg/ml Amphotericin B antibiotic antimycotic solution (Sigma). Cultures were maintained at 37 °C and 5% CO2, and the medium was changed every 3 days. When the cultures reached confluence, they were shaken overnight at 250 rpm and at 37 °C in order to detach the OPCs located on the top of the confluent astrocyte monolayer and the medium was then filtered through a 40μm nylon mesh strainer (BDBiosciences) and centrifuged at 900 rpm. Cells were seeded twice (45 minutes each) in bacterial grade Petri dishes (Sterilin) to remove microglial cells. The resulting enriched oligodendrocyte progenitor cell suspension was counted and seeded.
Purified OPCs were placed on coverslips coated with poly-L-lysine and laminin in 24-well tissue culture dishes at a density of 2 × 10^4 cells/well. To promote differentiation, the cells were maintained in the differentiation medium (described above) and PDE7-GSK3 or GSK3 inhibitors (VP3.15 or TDZD8; 1 μM) were added to the culture medium. Different controls were used for the dual or single inhibitors due to the active substance being dissolved in differing amounts of DMSO. After 5, 7 and 10 DIV the cells were fixed with 4% PFA for further immunocytochemical analysis. Anti-CNPase antibodies (1:200;Covance; Cat#SMI-91R), anti-MBP antibodies (1:200; Serotec; Cat#MCA4095) for detecting oligodendrocytes and anti-Olig2 antibodies (1:250; Millipore; Cat#AB9610) as a marker for all oligodendroglial stages were used. Ten random fluorescence digital images were taken in each coverslip with a DFC480 FX digital camera (Leica) coupled to a Leica DM5000 B microscope for quantification. Data were expressed as a mean ratio of differentiated oligodendrocytes (CNPase^+-Olig2^+ double positive cells) with respect to total Olig2^+ cells ± SEM or percentage of CNPase^+ cells respect to control ± SEM, in at least three independent experiments, except with human samples (two independent experiments).

[2] = parameters: method as in PMID 23077723, PMID 25264825; conditions: cited from earlier work
[3] = system: corpus callosum of LPC-injected mice; assay: In vivo remyelination, LPC demyelination model; parameters: species or system C57/BL6 male mice; conditions: 10 mg/kg i.p. from 9 dpi
Procedure: Anaesthetized 8 week old C57/BL6 male mice were injected with 2 μl of 1% LPC through a hole drilled in the skull at stereotactic coordinates 1.2 mm posterior, 0.5 mm lateral, 1.4 mm deep to the bregma over 4 minutes using a 30-gauge needle attached to a Hamilton syringe, driven by a KD Scientific Nano pump, for 4 minutes to reduce backflow as previously described. At 9 days post injection (dpi), the first intraperitoneal dose of PDE7-GSK3 inhibitors (VP1.15 or VP3.15; 10 mg/kg of animal) was injected using the same solution detailed above for the cuprizone model. Each inhibitor was injected into a group of 10 mice and another group of 10 mice was injected with the vehicle. Two days after, a second dose was injected (11 dpi) and 5 mice of each group were perfused at 14 dpi with 4% PFA and 2% glutaraldehyde (GTA) in phosphate buffer. The remaining 5 animals of each group received a third injection of inhibitors (15 dpi) and were perfused at 21 dpi. A control group of 3 non-lesioned and non-treated mice was used as control. Fixed brains were post-fixed in 1% GTA for 7 days and then coronally cut into 1 mm slices. The slices containing the injected areas were selected and the area of interest was cut and processed for electron microscopy into a resin (Araldite/TAAB 812 Resin Kit, TAAB) following manufacturer instructions.
In order to detect the injured areas for investigation, sagittal semi-thin sections (1 μm) were cut using an ultramicrotome (Leica) and stained with toluidine blue. Ultra-thin sections (60 nm thick) were cut and stained in uranyl acetate and lead citrate and the ultrastructure was analysed taking images with a GatanOrius CCD camera coupled to a transmission electronic microscope (Philips CM120). The percentage of myelinated fibres and the thickness of myelin sheaths were examined. The mean percentage of myelinated fibres was measured from 10 fields per animal. Grids were overlaid onto the images and all axons intersecting with the grid lines were counted as myelinated or not[83][84]. The thickness of myelin around myelinated fibres was expressed as a g-ratio (axon perimeter divided by myelinated fibre perimeter) using ImageJ by tracing around a minimum of 100 individual fibres per mouse, using a pen and electronic pad (Bamboo pad, Wacom). To select the fibres randomly, a grid composed by 8 μm[2] squares was overlaid onto the images and fibres in alternate squares were measured. Data were expressed as the mean ± SEM.

[4] = murine P0 OPCs, 1 μM, 5, 7 and 10 DIV

Which “OPC proliferation (BrdU+-Olig2+ cells)” value (OPCs from P0 mice) does the source give for `c1ccc(-c2n/c(=N/CCN3CCOCC3)sn2-c2ccccc2)cc1` [VP3.15] here?
Its value is “no changes”.

What about the “number of mature oligodendrocytes (CNPase+-Olig2+ cells) vs control” value [1, 4] of the same molecule?
The value was “significant increase”.

And the “number of mature oligodendrocytes (MBP+-Olig2+ cells) vs control” value [1, 4]?
Its value is “significant increase”.

And the “number of primary cytoplasmic processes” value ([1]; murine mature oligodendrocytes, control 4.9 ± 0.35, p = 0.64)?
The value was 4.7 ± 0.31.

What about the “number of cytoplasmic subprocesses” value ([1]; murine mature oligodendrocytes, control 8.588 ± 0.875, p = 0.62) of the same molecule?
The value was 8.111 ± 0.970.

What about the emetic side effects [2] of the same molecule?
The emetic side effects was “without emetic side effects”.

What about the “thickness of myelin sheaths (G-ratio) vs untreated demyelinated control” value [3] of the same molecule?
The value was “increased the thickness”.

And the “percentage of myelinated callosal fibers vs vehicle” value ([3]; analysed at 14 or 21 dpi)?
The value was “did not show any effect”.
